Experimental data from patent US20230287051A1, “INHIBITORS OF COMPLEMENT FACTOR C3 AND THEIR MEDICAL USES” (ZP SPV 3 K/S, priority 2020, published 2023).
Numbered stars: 1 amine (or outer) side, 2 acyl side, 3 side chain; on linkers, the order of the positions; unused ones are H or OH. Bridge positions count the residues as written; N and C are the ends. Square brackets hold non-standard residues; d marks the D form. Side chains are listed from the residue outwards. Peptide text beside a SMILES is read from it. * marks the point of attachment. Trp(1-Me) = Cn1cc(C[C@H](N)C(=O)O)c2ccccc21; C18 diacid = O=C(O)CCCCCCCCCCCCCCCCC(=O)*; C16 diacid = O=C(O)CCCCCCCCCCCCCCC(=O)*; γGlu = O=C(O)[C@H](CCC(=O)[*:2])N[*:1]; AEEA = NCCOCCOCC(=O)O; CH2 = C([*:1])[*:2]; Sar = CNCC(=O)O

B1: Compound 25 (peptide)
peptide: Ac-SEQAFCI[Trp(1-Me)]QDW[Sar]EHRCTEGE[AEEA][AEEA]K([γGlu-Gly-γGlu-C18 diacid])-NH2
modifications: bridge 6-16 via methylene thioacetal (-S-CH2-S-)
notes: Synthetic compstatin analogue; also called Comp No 25; comp 25
B2: Compound 26 (peptide)
peptide: Ac-SKQEFCI[Trp(1-Me)]QDW[Sar]EHRCTEGE[AEEA][AEEA]K([γGlu-Gly-γGlu-C18 diacid])-NH2
modifications: bridge 6-16 via methylene thioacetal (-S-CH2-S-)
notes: Synthetic compstatin analogue; also called Comp No 26
B3: Compound 24 (peptide)
peptide: Ac-ESEQVFCI[Trp(1-Me)]QDW[Sar]EHRCTEGE[AEEA][AEEA]K([γGlu-Gly-γGlu-C18 diacid])-NH2
modifications: bridge 7-17 via methylene thioacetal (-S-CH2-S-)
notes: Synthetic compstatin analogue; also called Comp No 24

Experiments:
[1] = test system: classical complement pathway; test: In vitro haemolysis assay (inhibition of classical complement pathway); type: cell-based; conditions: human serum, sensitized sheep RBC, 30 minutes at 37° C., absorbance at 405 nm, n=>2; read-out: IC50, inhibition of hemolysis
Description: The in vitro effect of some of the compounds described herein was assessed by measuring their inhibitory effect of the classical complement pathway in a haemolysis assay.
Briefly, compounds described herein and reference compounds were dissolved in DMSO and diluted in Tris/Casein Assay Buffer (10 mM Tris, 145 mM NaCl, 0.5 mM MgCl2, 0.15 mM CaCl2, and 0.1% W/V casein, adjusted to pH 7.4) as 9-point serial dilutions in a 96-well plate. Sensitized sheep red blood cells (RBC) coated with rabbit anti-sheep erythrocyte antiserum (Complement Technology, Inc., TX, USA) were washed in Tris/asein Assay Buffer. 50 μL from each well of diluted compound was added to a 96-well plate containing 50 μL diluted human serum (Complement Technology, Inc., TX, USA) and incubated for 15 minutes at room temperature. The serum dilution factor was optimized for every serum batch to obtain 70-90% of maximal haemolysis using the protocol. Then 50 μL sensitized sheep RBCs were added to all wells ([…]).
After 30 minutes of incubation at 37° C. with gentle agitation, the reaction was stopped by addition of 50 μL Tris STOP Buffer per well (10 mM EDTA, 10 mM Tris, 145 mM NaCl adjusted to pH 7.4). The RBCs were then removed by centrifugation and the resulting supernatant measured for hemolysis by absorbance at 405 nm.
The response was normalized relative to a positive and negative control (vehicle) to calculate the IC50 (nM) from the concentration response curve using the 4-parameter logistic (4PL) nonlinear model for curve fitting (Table 2). All values are based on n=>2 independent determinations.

Human C3 = target: T1, Human C3 (Homo sapiens, UniProt P01024); test: Affinity measurement by surface plasmon resonance with immobilized C3; conditions: SPR, immobilized human C3, 25° C., 1:1 Langmuir binding model, n=>2
T1 construct: purchased Complement tech A113c
Description: (§1) Surface plasmon resonance (SPR) was used to characterize peptides with respect to their binding affinity (Kd) for C3.
(§2) For interaction experiments, a multi-cycle experiment approach was used and performed using a BiacoreX100™ instrument (GE Healthcare) at 25° C. Peptides were injected in increasing concentration series (5 different concentrations and buffer reference) for 180 seconds at a flow rate of 30 μL/min in a buffer consisting of 50 mM Tris buffer at pH 7.4, with 150 mM NaCl and 0.05% Tween20. This was followed by a dissociation period for 10 min. The C3 surface was regenerated between runs by two consecutive injections of 3 M MgCl2 each for 45 seconds.
(§3) Sensorgrams were double-referenced (reference surface, blanks) prior to analysis of the kinetic profiles by globally fitting data to a 1:1 Langmuir binding model to obtain association and dissociation rates for calculation of the equilibrium dissociation constant Kd (Table 3). Each peptide was tested at in at least 2 independent experiments.

[2] = target: T2, Human C3 (Complement tech cat #A113c) (human, UniProt P01024 23-1663); test: SPR (Biacore X100, 25 C), human C3 amine-coupled on CM5 chip, peptide as analyte, 1:1 Langmuir fit
T2 construct: Purified human C3 immobilised by amine coupling in the SPR assay; in the haemolysis assay the C3 is that of diluted human serum; Native C3 is a two-chain (beta and alpha) protein made from one precursor; also called complement factor C3
Description: as §1
as §2, with “min.” for “min. The C3 surface was regenerated between runs by two consecutive injections of 3 M MgCl2 each for 45 seconds.”
as §3

[3] = target: T2, Human C3 (Complement tech cat #A113c); test: cell-based or functional assay

T2 sequence (P01024 23-1663 limits assumed): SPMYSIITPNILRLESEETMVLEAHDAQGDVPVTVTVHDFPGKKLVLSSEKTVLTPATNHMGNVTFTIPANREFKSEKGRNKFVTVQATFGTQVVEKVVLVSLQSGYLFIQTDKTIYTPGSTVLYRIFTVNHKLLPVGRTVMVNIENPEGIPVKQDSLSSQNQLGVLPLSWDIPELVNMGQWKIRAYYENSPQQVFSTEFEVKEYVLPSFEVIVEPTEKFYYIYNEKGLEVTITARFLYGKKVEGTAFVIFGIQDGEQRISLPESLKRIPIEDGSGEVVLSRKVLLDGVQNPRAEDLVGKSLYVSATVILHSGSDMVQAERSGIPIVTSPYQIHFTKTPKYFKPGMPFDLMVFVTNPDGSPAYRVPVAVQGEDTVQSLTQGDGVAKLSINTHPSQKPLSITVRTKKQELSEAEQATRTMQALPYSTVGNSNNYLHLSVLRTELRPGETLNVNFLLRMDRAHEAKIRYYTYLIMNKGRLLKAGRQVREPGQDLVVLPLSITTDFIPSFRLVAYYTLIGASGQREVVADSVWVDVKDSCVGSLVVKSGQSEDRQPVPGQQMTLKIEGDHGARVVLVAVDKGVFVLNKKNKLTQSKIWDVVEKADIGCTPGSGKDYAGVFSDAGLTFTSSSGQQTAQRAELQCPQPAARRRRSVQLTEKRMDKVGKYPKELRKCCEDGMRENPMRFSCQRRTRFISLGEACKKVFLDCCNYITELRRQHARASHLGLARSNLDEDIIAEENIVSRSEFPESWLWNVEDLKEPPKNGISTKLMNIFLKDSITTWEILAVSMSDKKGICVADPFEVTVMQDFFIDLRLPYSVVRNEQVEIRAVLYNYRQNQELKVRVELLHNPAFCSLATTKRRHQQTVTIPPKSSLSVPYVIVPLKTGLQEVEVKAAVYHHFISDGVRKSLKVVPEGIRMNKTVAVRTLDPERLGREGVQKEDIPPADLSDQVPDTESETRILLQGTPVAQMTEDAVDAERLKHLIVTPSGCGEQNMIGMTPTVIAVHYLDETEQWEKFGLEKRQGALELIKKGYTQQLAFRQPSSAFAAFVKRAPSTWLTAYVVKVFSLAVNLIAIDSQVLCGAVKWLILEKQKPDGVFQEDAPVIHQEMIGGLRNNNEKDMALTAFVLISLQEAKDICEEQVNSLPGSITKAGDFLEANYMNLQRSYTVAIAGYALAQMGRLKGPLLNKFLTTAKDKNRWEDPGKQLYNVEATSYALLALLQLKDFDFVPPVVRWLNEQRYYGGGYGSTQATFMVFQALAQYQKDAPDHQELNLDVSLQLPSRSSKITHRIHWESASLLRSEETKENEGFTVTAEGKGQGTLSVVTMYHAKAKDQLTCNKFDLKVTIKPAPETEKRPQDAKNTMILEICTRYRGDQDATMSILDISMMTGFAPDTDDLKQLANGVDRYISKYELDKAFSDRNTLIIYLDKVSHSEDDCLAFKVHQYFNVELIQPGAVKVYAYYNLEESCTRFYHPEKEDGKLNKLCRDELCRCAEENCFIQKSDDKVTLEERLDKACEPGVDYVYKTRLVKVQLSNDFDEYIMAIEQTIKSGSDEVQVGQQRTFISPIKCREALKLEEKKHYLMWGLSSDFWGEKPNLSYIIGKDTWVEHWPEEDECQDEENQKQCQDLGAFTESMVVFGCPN

| Molecule | IC50 [1] [nM] | Kd (Human C3) [nM] | Kd [2] [nM] | IC50 [nM], in vitro inhibition of hemolysis (classical complement pathway; human serum, sensitized sheep RBC) [3] [nM] |
| --- | --- | --- | --- | --- |
| CC[C@H](C)[C@@H]1NC(=O)[C@@H](NC(=O)[C@H](Cc2ccccc2)NC(=O)[C@H](CCC(=O)O)NC(=O)[C@H](CO)NC(=O)CNC(=O)[C@H](CCC(=O)O)NC(=O)CCCCCCCCCCCCCCC(=O)O)CSCSC[C@@H](C(=O)N[C@H](C(=O)N[C@@H](CCC(=O)O)C(=O)NCC(=O)N[C@@H](CCC(=O)O)C(N)=O)[C@@H](C)O)NC(=O)[C@H](CCCNC(=N)N)NC(=O)[C@H](Cc2c[nH]cn2)NC(=O)[C@H](CCC(=O)O)NC(=O)CN(C)C(=O)[C@H](Cc2c[nH]c3ccccc23)NC(=O)[C@H](CC(=O)O)NC(=O)[C@H](CCC(N)=O)NC(=O)[C@H](Cc2cn(C)c3ccccc23)NC1=O [Compound 19] ({C16 diacid}-EGSEFCI[Trp(1-Me)]QDW[Sar]EHRCTEGE-NH2; linker 6-16 via CH2) | < 250 | 19 | – | – |
| CC[C@H](C)[C@@H]1NC(=O)[C@@H](NC(=O)[C@H](Cc2ccccc2)NC(=O)[C@H](CCC(=O)O)NC(=O)[C@H](CO)NC(C)=O)CSCSC[C@@H](C(=O)N[C@H](C(=O)N[C@@H](CCC(=O)O)C(=O)NCC(=O)N[C@@H](CCC(=O)O)C(=O)NCCOCCOCC(=O)NCCOCCOCC(=O)N[C@@H](CCCCNC(=O)CC[C@H](NC(=O)CNC(=O)CC[C@H](NC(=O)CCCCCCCCCCCCCCCCC(=O)O)C(=O)O)C(=O)O)C(N)=O)[C@@H](C)O)NC(=O)[C@H](CCCNC(=N)N)NC(=O)[C@H](Cc2c[nH]cn2)NC(=O)[C@H](CCC(=O)O)NC(=O)CN(C)C(=O)[C@H](Cc2c[nH]c3ccccc23)NC(=O)[C@H](CC(=O)O)NC(=O)[C@H](CCC(N)=O)NC(=O)[C@H](Cc2cn(C)c3ccccc23)NC1=O [Compound 9] (Ac-SEFCI[Trp(1-Me)]QDW[Sar]EHRCTEGE[AEEA][AEEA]K([γGlu-Gly-γGlu-C18 diacid])-NH2; linker 4-14 via CH2) | < 250 | 17 | – | – |
| CC[C@H](C)[C@@H]1NC(=O)[C@@H](NC(=O)[C@H](Cc2ccccc2)NC(=O)[C@H](CCC(=O)O)NC(=O)[C@H](CO)NC(=O)CNC(=O)[C@H](CCC(=O)O)NC(C)=O)CSCSC[C@@H](C(=O)N[C@H](C(=O)N[C@@H](CCC(=O)O)C(=O)NCC(=O)N[C@@H](CCC(=O)O)C(=O)NCCOCCOCC(=O)N[C@@H](CCC(=O)O)C(=O)N[C@@H](CO)C(=O)N[C@@H](CCCCNC(=O)CC[C@H](NC(=O)CCCCCCCCCCCCCCCCC(=O)O)C(=O)O)C(N)=O)[C@@H](C)O)NC(=O)[C@H](CCCNC(=N)N)NC(=O)[C@H](Cc2c[nH]cn2)NC(=O)[C@H](CCC(=O)O)NC(=O)CN(C)C(=O)[C@H](Cc2c[nH]c3ccccc23)NC(=O)[C@H](CC(=O)O)NC(=O)[C@H](CCC(N)=O)NC(=O)[C@H](Cc2cn(C)c3ccccc23)NC1=O [Compound 20, Ac-EGSEF[C(1)]I[1-Me-Trp]QDW[Sar]EHR[C(1)]TEGE[Peg3]ES-K([17-Carboxy-heptadecanoyl][yGlu])-NH2] (Ac-EGSEFCI[Trp(1-Me)]QDW[Sar]EHRCTEGE[AEEA]ESK([γGlu-C18 diacid])-NH2; linker 6-16 via CH2) | < 250 | 19 | – | – |
| CC[C@H](C)[C@@H]1NC(=O)[C@@H](NC(=O)[C@H](Cc2ccccc2)NC(=O)[C@@H](NC(=O)CNC(=O)[C@H](CO)NC(=O)[C@@H](N)CCC(=O)O)C(C)C)CSCSC[C@@H](C(=O)N[C@H](C(=O)N[C@@H](CCC(=O)O)C(=O)NCC(=O)N[C@@H](CCC(=O)O)C(=O)NCCOCCOCC(=O)NCCOCCOCC(=O)N[C@@H](CCCCNC(=O)CC[C@H](NC(=O)CNC(=O)CC[C@H](NC(=O)CCCCCCCCCCCCCCCCC(=O)O)C(=O)O)C(=O)O)C(N)=O)[C@@H](C)O)NC(=O)[C@H](CCCNC(=N)N)NC(=O)[C@H](Cc2c[nH]cn2)NC(=O)[C@H](CCC(=O)O)NC(=O)CN(C)C(=O)[C@H](Cc2c[nH]c3ccccc23)NC(=O)[C@H](CC(=O)O)NC(=O)[C@H](CCC(N)=O)NC(=O)[C@H](Cc2cn(C)c3ccccc23)NC1=O [Compound 29, H-ESGVF[C(1)]I[1-Me-Trp]QDW[Sar]EHR[C(1)]TEGE[Peg3][Peg3]-K([17-Carboxy-heptadecanoyl][yGlu]G[yGlu])-NH2] (H-ESGVFCI[Trp(1-Me)]QDW[Sar]EHRCTEGE[AEEA][AEEA]K([γGlu-Gly-γGlu-C18 diacid])-NH2; linker 6-16 via CH2) | < 100 | 15 | – | – |
| CC[C@H](C)[C@@H]1NC(=O)[C@@H](NC(=O)[C@H](Cc2ccccc2)NC(=O)[C@H](CCC(=O)O)NC(=O)[C@H](CO)NC(C)=O)CSCSC[C@@H](C(=O)N[C@H](C(=O)N[C@@H](CCC(=O)O)C(=O)NCCOCCOCC(=O)NCCOCCOCC(=O)N[C@@H](CCCCNC(=O)CC[C@H](NC(=O)CNC(=O)CC[C@H](NC(=O)CCCCCCCCCCCCCCCCC(=O)O)C(=O)O)C(=O)O)C(N)=O)[C@@H](C)O)NC(=O)[C@H](CCCNC(=N)N)NC(=O)[C@H](Cc2c[nH]cn2)NC(=O)[C@H](CCC(=O)O)NC(=O)CN(C)C(=O)[C@H](Cc2c[nH]c3ccccc23)NC(=O)[C@H](CC(=O)O)NC(=O)[C@H](CCC(N)=O)NC(=O)[C@H](Cc2cn(C)c3ccccc23)NC1=O [Compound 10, Ac-SEF[C(1)]I[1-Me-Trp]QDW[Sar]EHR[C(1)]TE[Peg3][Peg3]-K([17-Carboxy-heptadecanoyl][yGlu]G[yGlu])-NH2] (Ac-SEFCI[Trp(1-Me)]QDW[Sar]EHRCTE[AEEA][AEEA]K([γGlu-Gly-γGlu-C18 diacid])-NH2; linker 4-14 via CH2) | < 250 | 19 | – | – |
| CC[C@H](C)[C@@H]1NC(=O)[C@@H](NC(=O)[C@H](Cc2ccccc2)NC(=O)[C@H](C)NC(=O)[C@H](CO)NC(=O)[C@H](CCC(N)=O)NC(=O)CNC(C)=O)CSCSC[C@@H](C(=O)N[C@H](C(=O)N[C@@H](CCC(=O)O)C(=O)NCC(=O)N[C@@H](CCC(=O)O)C(=O)NCCOCCOCC(=O)NCCOCCOCC(=O)N[C@@H](CCCCNC(=O)CC[C@H](NC(=O)CNC(=O)CC[C@H](NC(=O)CCCCCCCCCCCCCCCCC(=O)O)C(=O)O)C(=O)O)C(N)=O)[C@@H](C)O)NC(=O)[C@H](CCCNC(=N)N)NC(=O)[C@H](Cc2c[nH]cn2)NC(=O)[C@H](CCC(=O)O)NC(=O)CN(C)C(=O)[C@H](Cc2c[nH]c3ccccc23)NC(=O)[C@H](CC(=O)O)NC(=O)[C@H](CCC(N)=O)NC(=O)[C@H](Cc2cn(C)c3ccccc23)NC1=O [Compound 28, Ac-GQSAF[C(1)]I[1-Me-Trp]QDW[Sar]EHR[C(1)]TEGE[Peg3][Peg3]-K([17-Carboxy-heptadecanoyl][yGlu]G[yGlu])-NH2] (Ac-GQSAFCI[Trp(1-Me)]QDW[Sar]EHRCTEGE[AEEA][AEEA]K([γGlu-Gly-γGlu-C18 diacid])-NH2; linker 6-16 via CH2) | < 100 | 15 | – | – |
| B1 | – | – | 9.1 | < 100 |
| B2 | – | – | 11 | < 100 |
| B3 | – | – | 13 | < 100 |
